“Also recorded” adds a separate entry of the source.
Columns and labels:
ATase = ATase activity in tissues of nude mice after inactivator; format: in vivo, mouse; conditions: 10 mg/kg i.p., 24 and 48 hours (Table 10)
Experimental: ATase substrate DNA was prepared by incubation of purified calf thymes DNA with N-[^3 H]-methyl-N-nitrosuourea (18.7 Ci/mmole, Amersham International). Cell or tissue extracts (see 4.4) were incubated with [^3 H]-methylated-DNA substrate (100 μl containing 6.7 μg of DNA and 100 fmol of O^6 -[^3 H]methylguanine) at 37° C. for 60 mins. Following acid hydrolysis of the DNA as precviously described^21the [^3 H]-methylated protein was recovered and quantitated by liquid scintillation counting. […]
The mice in the tests shown in FIGS. 17 and 18 were BALB-C derived athymic male mice (nu/nu athymic) from the in-house breeding colony at the Paterson Institute for Cancer Research as described above (Animal Services Unit-ASU Mice).
Animals were given a single dose of B.4280 (10 mg/kg i.p.) and sacrificed

bone marrow cells = assay: Inactivator toxicity in bone marrow cells (GM-CFC colonies, inactivator alone); format: cell-based, human; conditions: 10 μM, 5 patients (Table 7)
Source text: For the granulocyte/macrophage colony-forming cell (GM-CFC) assay primary human bone marrow samples were obtained from patients undergoing cardiothoracic surgery. […] The colonies represented precursor cells of the granulocyte/macrophage lineage (huGM-CFC). Survival was expressed as a % of the number of colonies at zero dose temozolomide.

[1] = system: Xeroderma pigmentosum cells; assay: Sensitivity of mammalian cells to the inactivators alone: XP cells; format: cell-based, human; conditions: inactivator alone (FIG. 6)
Experimental: (§1) In order to assess the effects on cell growth alone, Xeroderma pigmentosum cells and Chinese Hamster V79 cells were exposed to increasing concentrations (up to 600 μM) of selected inactivators for 2 h at 37°. In some cases, the inactivators were allowed to undergo hydrolysis at 37° C. for 20 hours and then added to Raji cells in order to assess the extent to which the decomposition products of the agents might inhibit cell growth. After 6 days the extent of cell growth was determined as described above.

[2] = as above; format: cell-based, human; conditions: human, xp cells; FIG. 6; read-out: dose required for growth inhibition relative to that required for ATase inactivation
Experimental: as §1

ATase in WiDr cells = target: T1, ATase in WiDr cells (Homo sapiens, UniProt P16455); assay: Inactivation of ATase activity in mammalian cells: WiDr; format: cell-based; conditions: read-out: Inactivation of ATase in Mammalian Cells I50
T1 construct: WiDr cells are a human colon carcinoma cell line; endogenous in cells; host or cells: WiDr
T1 sequence (P16455 1-207): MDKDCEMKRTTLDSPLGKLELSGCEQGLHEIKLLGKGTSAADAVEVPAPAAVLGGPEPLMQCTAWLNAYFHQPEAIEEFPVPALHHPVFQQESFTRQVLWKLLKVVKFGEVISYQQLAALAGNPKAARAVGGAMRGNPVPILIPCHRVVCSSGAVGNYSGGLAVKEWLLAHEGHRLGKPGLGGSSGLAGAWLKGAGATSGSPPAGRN
Experimental: Mammalian cells were cultured under standard conditions. For example, Raji (a human lymphoblastoid cell line from a Burkitt's lymphoma) cells were grown in suspension culture in RPMI medium supplemented with 10% horse serum. A375M cells are human melanoma cells from which the xenografts described below were established following subcutaneous injection into nude mice: WiDr cells are a human colon carcinoma cell line: Hamster+120 cells are a mitozolomide-selected subline of a Chinese hamster lung fibroblast V79 cell line called RJKO: Yoshida cells are a rat carcinosarcoma cell line and YRbus is a busulphan resistant subline thereof: XP cells are an SV40-transformed fibroblast cell line originally from the skin of a Xeroderma piamentosum patient, pHMGhAT2b cells are a clone of these cells that have been transfected with a mammalian cell expression vector containing the human ATase cDNA and pHMGla cells are a clone that have been transfected with the expression vector only (i.e. one not containing the human ATase cDNA). Cell pellets were resuspended in cold (4° C.) buffer I containing 2 μg/ml leupeptin and sonicated for 10 seconds at 12μ peak to peak distance. After cooling in ice, the cells were sonicated for a further 10 seconds at 18μ. […]

SMILES | recovery of ATase activity in tissues, in words (ATase) | toxic effect of inactivator alone on bone marrow cells, in words (bone marrow cells) | growth inhibition / toxicity to XP cells, in words [1] | selectivity ratio [2] | IC50 (ATase in WiDr cells) [nM]
Nc1nc(OCc2cc(Br)cs2)c2nc[nH]c2n1 [B.4280, O^6-(4-bromothenyl)guanine] | activity in brain, testis and bone marrow was near to control levels by 24 hours whereas lung and spleen activity had not completely recovered by 48 hours |  |  |  | 
Nc1nc(OCc2cccs2)c2nc[nH]c2n1 [B.4205, 0^6 -thenylguanine] |  | comparable to those for O^6 -benzylguanine | more sensitive than V79 cells; also recorded: toxic | ≥ 100 | 20
